Assay results as given in the NIST ThermoML archive (doi:10.1021/je050216m).
Values joined by “and” are separate entries in the source; they are usually repeats but may differ in a detail not shown here. Equal entries are not always repeated.

Settings: Crystal, Closed cell (Static) method

c1ccc2ccccc2c1 [naphthalene]
Settings	vapor or sublimation pressure
258.48 K	0.00011 kPa
258.49 K	0.00011 kPa
263.48 K	0.00022 kPa
263.49 K	0.00023 kPa
268.48 K	0.00042 kPa and 0.00041 kPa and 0.00043 kPa
273.48 K	0.00078 kPa and 0.00077 kPa
273.49 K	0.00078 kPa and 0.00077 kPa
273.68 K	0.0008 kPa and 0.00081 kPa
278.48 K	0.00137 kPa and 0.00138 kPa
278.49 K	0.00138 kPa [middle of 4 runs]
283.49 K	0.00241 kPa
288.49 K	0.00411 kPa and 0.0041 kPa
293.49 K	0.00688 kPa
298.49 K	0.0114 kPa and 0.0113 kPa
303.5 K	0.0183 kPa and 0.0182 kPa
308.51 K	0.029 kPa
313.52 K	0.0454 kPa and 0.0455 kPa
